“Also recorded” adds a separate entry of the source.
Assays:
Recombinant human SphK1 [1] = molecular target: T1, Recombinant human SphK1 (Homo sapiens, UniProt Q9NYA1); details: compound 1.0 μM
Recombinant human SphK2 = molecular target: T2, Recombinant human SphK2 (Homo sapiens, UniProt Q9NRA0); assay: Recombinant hSphK2 cell lysate assay; assay type: biochemical; details: for SphK2 inhibition, in words: compound 0.3 μM; for inhibition at 0.3 µM: read-out: % SphK2 Inhibition
T2 sequence (Q9NRA0 1-654): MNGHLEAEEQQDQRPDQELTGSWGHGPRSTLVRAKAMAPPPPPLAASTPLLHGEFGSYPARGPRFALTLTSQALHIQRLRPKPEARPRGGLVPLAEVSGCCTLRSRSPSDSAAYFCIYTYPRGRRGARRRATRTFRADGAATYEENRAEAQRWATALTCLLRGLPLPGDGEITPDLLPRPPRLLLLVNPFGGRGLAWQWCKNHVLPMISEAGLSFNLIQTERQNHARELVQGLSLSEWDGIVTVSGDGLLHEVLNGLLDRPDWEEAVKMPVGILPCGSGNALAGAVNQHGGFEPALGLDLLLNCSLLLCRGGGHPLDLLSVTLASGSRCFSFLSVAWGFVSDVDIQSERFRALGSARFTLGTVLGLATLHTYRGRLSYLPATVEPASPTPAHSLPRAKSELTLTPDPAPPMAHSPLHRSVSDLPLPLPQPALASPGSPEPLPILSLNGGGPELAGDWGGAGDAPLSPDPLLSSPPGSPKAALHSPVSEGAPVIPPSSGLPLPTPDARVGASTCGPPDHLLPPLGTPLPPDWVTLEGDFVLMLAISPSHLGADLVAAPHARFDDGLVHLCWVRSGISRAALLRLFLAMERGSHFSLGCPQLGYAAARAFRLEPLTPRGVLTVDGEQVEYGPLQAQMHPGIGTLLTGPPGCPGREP

U937 cells = assay: U937 cell culture assay, S1P levels by LC-MS/MS; details: 0.1 μM to 1.0 μM, 2.0 h incubation
Recombinant human SphK1 [2] = molecular target: T1, Recombinant human SphK1; assay: biochemical; details: read-out: % SphK1 Inhibition

T1 sequence (Q9NYA1 whole entry): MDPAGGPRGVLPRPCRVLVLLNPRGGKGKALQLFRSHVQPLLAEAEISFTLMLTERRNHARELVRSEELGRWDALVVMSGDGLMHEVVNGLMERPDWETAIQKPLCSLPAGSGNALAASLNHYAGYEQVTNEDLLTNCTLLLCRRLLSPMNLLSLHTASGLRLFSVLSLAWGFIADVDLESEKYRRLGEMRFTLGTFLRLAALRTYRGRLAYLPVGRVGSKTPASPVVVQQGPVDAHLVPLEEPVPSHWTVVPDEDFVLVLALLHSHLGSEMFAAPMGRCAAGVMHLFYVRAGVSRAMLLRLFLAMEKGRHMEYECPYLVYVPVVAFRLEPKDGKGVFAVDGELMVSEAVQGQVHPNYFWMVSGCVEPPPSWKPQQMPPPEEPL

How did the “SphK1 inhibition, in words” value (Recombinant human SphK1 [1]) turn out when `CCCCCCCOc1ccc(CN2CCC[C@@H]2CO)cc1.Cl` [12a, (R)-(1-(4-(heptyloxy)benzyl)pyrrolidin-2-yl)methanol] was run?
The value was “poor SphK1 and 2 inhibition”.

What about the “SphK2 inhibition, in words” value (Recombinant human SphK2) of the same compound?
The value was “poor SphK1 and 2 inhibition”.

What does the source list for `Cl.OC[C@H]1CCCN1Cc1ccc(OCc2ccc(C(F)(F)F)cc2)cc1` [12e, (R)-(1-(4-((4-(trifluoromethyl)benzyl)oxy)benzyl)pyrrolidin-2-yl)methanol]?
SphK1 inhibition, in words (Recombinant human SphK1 [1]): weak SphK inhibition; SphK2 inhibition, in words (Recombinant human SphK2): weak SphK inhibition

How did the “SphK1 inhibition, in words” value (Recombinant human SphK1 [1]) turn out when `Cl.OC[C@H]1CCCN1Cc1ccc(Oc2ccccc2)cc1` [18a, (R)-(1-(4-phenoxybenzyl)pyrrolidin-2-yl)methanol] was run?
Its value is “poor SphK1 and 2 inhibition”.

What about the “SphK2 inhibition, in words” value (Recombinant human SphK2) of the same compound?
Its value is “poor SphK1 and 2 inhibition”.

What does the source list for `CC(C)(C)c1cccc(Oc2ccc(CN3CCC[C@@H]3CO)cc2)c1.Cl` [18b, (R)-(1-(4-(3-(tert-butyl)phenoxy)benzyl)pyrrolidin-2-yl)methanol]?
SphK1 inhibition, in words (Recombinant human SphK1 [1]): minimal enzyme inhibition; SphK2 inhibition, in words (Recombinant human SphK2): minimal enzyme inhibition

With `Cl.OC[C@H]1CCCN1Cc1ccc(Oc2cccc(-c3ccccc3)c2)cc1` [18d, (R)-(1-(4-([1,1′-biphenyl]-3-yloxy)benzyl)pyrrolidin-2-yl)methanol] as the compound, how does the “SphK1 inhibition, in words” value (Recombinant human SphK1 [1]) read?
The value was “minimal enzyme inhibition”.

What about the “SphK2 inhibition, in words” value (Recombinant human SphK2) of the same compound?
Its value is “minimal enzyme inhibition”.

With `CCCCCCCCCCc1ccc(CN2CCC[C@@H]2CO)cc1.Cl` [22b, (R)-(1-(4-decylbenzyl)pyrrolidin-2-yl)methanol] as the compound, how does the “SphK2 inhibition, in words” value (Recombinant human SphK2) read?
The value was “strong inhibitory activity”.

`CCCCCCCCCCCCc1ccc(CN2CCC[C@@H]2CO)cc1.Cl` [22d, (R)-(1-(4-dodecylbenzyl)pyrrolidin-2-yl)methanol] was tested. Which “S1P levels in U937 cells” value (U937 cells) did it give?
The value was “decreased S1P levels; also recorded: concentration-dependent reduction of S1P levels”.

And the “SphK2 inhibition, in words” value (Recombinant human SphK2)?
The value was “strong inhibitory activity”.

`Cc1ccc(CCc2ccc(CN3CCC[C@@H]3CO)cc2)cc1` [22f, (R)-(1-(4-(4-methylphenethyl)benzyl)pyrrolidin-2-yl)methanol] was tested. Which inhibition at 1 µM (Recombinant human SphK1 [2]) did it give?
The inhibition at 1 µM was 4 ± 4%.

What about the inhibition at 0.3 µM (Recombinant human SphK2) of the same compound?
Its inhibition at 0.3 µM is 3 ± 5%.

What does the source list for `COc1ccc(CCc2ccc(CN3CCC[C@@H]3CO)cc2)cc1` [22g, (R)-(1-(4-(4-methoxyphenethyl)benzyl)pyrrolidin-2-yl)methanol]?
inhibition at 1 µM (Recombinant human SphK1 [2]): 8 ± 7%; inhibition at 0.3 µM (Recombinant human SphK2): 2 ± 2%

How did the inhibition at 1 µM (Recombinant human SphK1 [2]) turn out when `CCCCCCCCCCCc1ccc(CN2CCC[C@@H]2COC(C)=O)cc1` [22h, (R)-(1-(4-undecylbenzyl)pyrrolidin-2-yl)methyl acetate] was run?
Its inhibition at 1 µM is 47 ± 6%.

And the inhibition at 0.3 µM (Recombinant human SphK2)?
The inhibition at 0.3 µM was 26 ± 6%.

How did the inhibition at 1 µM (Recombinant human SphK1 [2]) turn out when `Cc1cc(/C=C/c2ccc(C(C)(C)C)cc2)ccc1CN1CCC[C@@H]1CO` [25a, (R,E)-(1-(4-(4-(tert-butyl)styryl)-2-methylbenzyl)pyrrolidin-2-yl)methanol] was run?
The inhibition at 1 µM was 23 ± 3%.

What about the inhibition at 0.3 µM (Recombinant human SphK2) of the same compound?
The inhibition at 0.3 µM was 0%.

For `OC[C@H]1CCCN1Cc1ccc(/C=C/c2cccc(C(F)(F)F)c2)cc1` [25b, (R,E)-(1-(4-(3-(trifluoromethyl)styryl)benzyl)pyrrolidin-2-yl) methanol], which inhibition at 1 µM (Recombinant human SphK1 [2]) is on record?
The inhibition at 1 µM was 45 ± 1%.

What about the inhibition at 0.3 µM (Recombinant human SphK2) of the same compound?
Its inhibition at 0.3 µM is 13 ± 5%.

With `CCCc1ccc(CCc2ccc(CN3CCC[C@@H]3CO)cc2)cc1` [29a, (R)-(1-(4-(4-propylphenethyl)benzyl)pyrrolidin-2-yl)methanol] as the compound, how does the inhibition at 1 µM (Recombinant human SphK1 [2]) read?
The inhibition at 1 µM was 29 ± 8%.

What about the inhibition at 0.3 µM (Recombinant human SphK2) of the same compound?
Its inhibition at 0.3 µM is 3 ± 4%.

Which inhibition at 1 µM (Recombinant human SphK1 [2]) does the source give for `CCCCc1ccc(CCc2ccc(CN3CCC[C@@H]3CO)cc2)cc1` [29b, (R)-(1-(4-(4-butylphenethyl)benzyl)pyrrolidin-2-yl)methanol] here?
Its inhibition at 1 µM is 31 ± 4%.

What does the source list for `CCCCCc1ccc(CCc2ccc(CN3CCC[C@@H]3CO)cc2)cc1` [29c, (R)-(1-(4-(4-pentylphenethyl)benzyl)pyrrolidin-2-yl)methanol]?
inhibition at 1 µM (Recombinant human SphK1 [2]): 36 ± 3%; inhibition at 0.3 µM (Recombinant human SphK2): 15 ± 5%

Source: publication PMC8862572 (Bioorganic & medicinal chemistry, 2020)
